According to patent US20150266850A1 (E.I.DU PONT DE NEMOURS AND COMPANY, priority 2012, published 2015):
Marks after values point to notes of the source that are not given here.

Tests used:
Type in all cases: in vivo
Botrytis cinerea = assay: Test E: tomato botrytis, preventive spray on tomato seedlings, visual disease rating; conditions: 100 = 100% disease control; for pest or weed control at 200 ppm / pest or weed control at 40 ppm: Botrytis cinerea, 120 h
In short: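 Preventive test: seedlings inoculated with Botrytis cinerea spore suspension one day after run-off spraying (200 ppm ≈ 800 g/ha; some 40 or 50 ppm) in acetone/water with 250 ppm surfactant. Incubation 48 h at 20°C saturated humidity, then 3 days at 27°C; disease control rated visually (0–100%) relative to controls.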

[1] = test system: Erysiphe graminis f. sp. tritici; assay: Test A: wheat powdery mildew, preventive spray on wheat seedlings, visual disease rating; conditions: 100 = 100% disease control; for pest or weed control at 200 ppm / pest or weed control at 40 ppm: Blumeria graminis, 192 h
In short: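 Preventive test: seedlings inoculated with Erysiphe spores one day after run-off spraying at 200 ppm (or 40/50 ppm) in acetone/water plus surfactant. Kept 8 days at 20° C; visual rating as % disease control versus untreated (100 = full control).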

Septoria tritici = assay: Test C: wheat leaf blotch, preventive spray on wheat seedlings, visual disease rating; conditions: 100 = 100% disease control; for pest or weed control at 200 ppm / pest or weed control at 40 ppm: Zymoseptoria tritici, 504 h
In short: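 Preventive run-off spray on seedlings at 200 ppm (equal to 800 g/ha), some at 40 or 50 ppm, in acetone/water 50/50 plus 250 ppm Trem® 014. Spore inoculation one day later; 24° C. saturated for 48 h, 20° C. chamber 19 days. Disease scored visually as % control relative to controls.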

[2] = test system: Puccinia recondita f sp. tritici; assay: Test B: wheat leaf rust, preventive spray on wheat seedlings, visual disease rating; conditions: 100 = 100% disease control; for pest or weed control at 200 ppm / pest or weed control at 40 ppm: 192 h
In short: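 Preventive spray to run-off on seedlings, one day before spore inoculation; 24 h in saturated atmosphere at 20° C, then 7 days in a 20° C growth chamber before visual rating (100 = full control, 0 = none, relative to controls). Standard rate 200 ppm, equal to 800 g/ha, some at 40 or 50 ppm; compounds in acetone/water with 250 ppm surfactant.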

Septoria nodorum = assay: Test D: wheat glume blotch, preventive spray on wheat seedlings, visual disease rating; conditions: 100 = 100% disease control; for pest or weed control at 200 ppm / pest or weed control at 40 ppm: Parastagonospora nodorum, 216 h
In short: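 Disease control (0 = none, 100 = full, relative to controls) was scored visually on wheat seedlings 7 days after a 48 h saturated-humidity incubation at 20° C following Septoria nodorum inoculation. Inoculation came one day after a run-off spray at 200 ppm (some 40 or 50 ppm) in acetone/water plus surfactant.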

CCOc1cc(Cl)ccc1-c1ccn(-c2ccc(C)c(CNC(=O)OC)c2)n1 [Cmpd 77]
Test E disease control rating (Botrytis cinerea; 40 ppm (*)): 0* %
Test A disease control rating ([1]; 40 ppm (*)): 100* %
Test C disease control rating (Septoria tritici; 40 ppm (*)): 99* %
Test B disease control rating ([2]; 40 ppm (*)): 100* %
Test D disease control rating (Septoria nodorum; 40 ppm (*)): 100* %

COC(=O)NCc1cc(-n2ccc(-c3ccc(Cl)cc3Br)n2)ccc1C [Cmpd 80]
Test E disease control rating (Botrytis cinerea; 40 ppm (*)): 81* %
Test A disease control rating ([1]; 40 ppm (*)): 97* %
Test C disease control rating (Septoria tritici; 40 ppm (*)): 58* %
Test B disease control rating ([2]; 40 ppm (*)): 100* %
Test D disease control rating (Septoria nodorum; 40 ppm (*)): 100* %

COC(=O)NCc1cc(-n2ncc(-c3ccc(Cl)cc3Cl)n2)ccc1C [Cmpd 86]
Test E disease control rating (Botrytis cinerea; 40 ppm (*)): 54* %
Test A disease control rating ([1]; 40 ppm (*)): 99* %
Test C disease control rating (Septoria tritici; 40 ppm (*)): 93* %
Test B disease control rating ([2]; 40 ppm (*)): 100* %
Test D disease control rating (Septoria nodorum; 40 ppm (*)): 100* %

COC(=O)NCc1cc(-n2ncc(-c3ccc(F)cc3Cl)n2)ccc1C [Cmpd 87]
Test E disease control rating (Botrytis cinerea; 40 ppm (*)): 61* %
Test A disease control rating ([1]; 40 ppm (*)): 98* %
Test C disease control rating (Septoria tritici; 40 ppm (*)): 88* %
Test B disease control rating ([2]; 40 ppm (*)): 100* %
Test D disease control rating (Septoria nodorum; 40 ppm (*)): 100* %

COC(=O)NCc1cc(-c2ccn(-c3ccc(N)cc3Cl)n2)ccc1C [Cmpd 90]
Test E disease control rating (Botrytis cinerea; 200 ppm): 97%
Test A disease control rating ([1]; 200 ppm): 0%
Test C disease control rating (Septoria tritici; 200 ppm): 100%
Test B disease control rating ([2]; 200 ppm): 98%
Test D disease control rating (Septoria nodorum; 200 ppm): 100%

COC(=O)NCc1cc(-n2ccc(-c3ccc(OC)cc3O)n2)ccc1C [Cmpd 103]
Test E disease control rating (Botrytis cinerea; 200 ppm): 0%
Test A disease control rating ([1]; 200 ppm): 48%
Test C disease control rating (Septoria tritici; 200 ppm): 74%
Test B disease control rating ([2]; 200 ppm): 100%
Test D disease control rating (Septoria nodorum; 200 ppm): 100%

COC(=O)NCc1cc(-n2ncc(-c3ccc(OC)cc3C(F)(F)F)n2)ccc1C [Cmpd 104]
Test E disease control rating (Botrytis cinerea; 40 ppm (*)): 0* %
Test A disease control rating ([1]; 40 ppm (*)): 98* %
Test C disease control rating (Septoria tritici; 40 ppm (*)): 91* %
Test B disease control rating ([2]; 40 ppm (*)): 100* %
Test D disease control rating (Septoria nodorum; 40 ppm (*)): 100* %

C#CCOc1cc(Cl)ccc1-c1ccn(-c2ccc(C)c(CNC(=O)OC)c2)n1 [Cmpd 108]
Test E disease control rating (Botrytis cinerea; 200 ppm): 8%
Test A disease control rating ([1]; 200 ppm): 99%
Test C disease control rating (Septoria tritici; 200 ppm): 95%
Test B disease control rating ([2]; 200 ppm): 100%
Test D disease control rating (Septoria nodorum; 200 ppm): 100%

COC(=O)NCc1cc(-n2ccc(-c3ccc(Br)cc3Br)n2)ccc1C [Cmpd 109]
Test E disease control rating (Botrytis cinerea; 40 ppm (*)): 0* %
Test A disease control rating ([1]; 40 ppm (*)): 99* %
Test C disease control rating (Septoria tritici; 40 ppm (*)): 92* %
Test B disease control rating ([2]; 40 ppm (*)): 100* %
Test D disease control rating (Septoria nodorum; 40 ppm (*)): 100* %

COC(=O)NCc1cc(-n2ccc(-c3ccc([N+](=O)[O-])cc3Cl)n2)ccc1C [Cmpd 110]
Test E disease control rating (Botrytis cinerea; 40 ppm (*)): 0* %
Test A disease control rating ([1]; 40 ppm (*)): 72* %
Test C disease control rating (Septoria tritici; 40 ppm (*)): 93* %
Test B disease control rating ([2]; 40 ppm (*)): 100* %
Test D disease control rating (Septoria nodorum; 40 ppm (*)): 100* %

COC(=O)NCc1cc(-c2ccn(-c3ccc(Br)cc3C#N)n2)ccc1C [Cmpd 111]
Test E disease control rating (Botrytis cinerea; 200 ppm): 0%
Test A disease control rating ([1]; 200 ppm): 94%
Test C disease control rating (Septoria tritici; 200 ppm): 93%
Test B disease control rating ([2]; 200 ppm): 100%
Test D disease control rating (Septoria nodorum; 200 ppm): 100%

COC(=O)NCc1cc(-n2ncc(-c3ccc(OC)cc3OC)[n+]2[O-])ccc1C [Compound 4]
pest or weed control at 200 ppm (Botrytis cinerea; 200 ppm): 69%
pest or weed control at 200 ppm ([1]; 200 ppm): 99%
pest or weed control at 200 ppm (Septoria tritici; 200 ppm): 99%
pest or weed control at 200 ppm ([2]; 200 ppm): 100%
pest or weed control at 200 ppm (Septoria nodorum; 200 ppm): 100%

COC(=O)NCc1cc(-n2ncc(-c3ccc(OC)cc3C)n2)ccc1C [Compound 8, methyl N-[[5-[4-(4-methoxy-2-methylphenyl)-2H-1,2,3-triazol-2-yl]-2-methylphenyl]methyl]carbamate]
pest or weed control at 200 ppm (Botrytis cinerea; 200 ppm): 90%
pest or weed control at 200 ppm ([1]; 200 ppm): 100%
pest or weed control at 200 ppm (Septoria tritici; 200 ppm): 100%
pest or weed control at 200 ppm ([2]; 200 ppm): 100%
pest or weed control at 200 ppm (Septoria nodorum; 200 ppm): 100%

COC(=O)NCc1cc(-c2ccn(-c3ccc(OC)cc3Cl)n2)ccc1C [Compound 20, methyl N-[[5-[1-(2-chloro-4-methoxyphenyl)-1H-pyrazol-3-yl]-2-methylphenyl]-methyl]carbamate]
pest or weed control at 200 ppm (Botrytis cinerea; 200 ppm): 0%
pest or weed control at 200 ppm ([1]; 200 ppm): 100%
pest or weed control at 200 ppm (Septoria tritici; 200 ppm): 100%
pest or weed control at 200 ppm ([2]; 200 ppm): 100%
pest or weed control at 200 ppm (Septoria nodorum; 200 ppm): 100%

COC(=O)NCc1cc(-c2ccn(-c3ccc(Cl)cc3OC)n2)ccc1C [Compound 28, methyl N-[[5-[1-(4-chloro-2-methoxyphenyl)-1H-pyrazol-3-yl]-2-methylphenyl]-methyl]carbamate]
pest or weed control at 200 ppm (Botrytis cinerea; 200 ppm): 57%
pest or weed control at 200 ppm ([1]; 200 ppm): 100%
pest or weed control at 200 ppm (Septoria tritici; 200 ppm): 100%
pest or weed control at 200 ppm ([2]; 200 ppm): 100%
pest or weed control at 200 ppm (Septoria nodorum; 200 ppm): 100%

COC(=O)NCc1cc(-n2ccc(-c3ccc(C)cc3C)n2)ccc1C [Compound 38, methyl N-[[5-[3-(2,4-dimethylphenyl)-1H-pyrazol-1-yl]-2-methylphenyl]-methyl]carbamate]
pest or weed control at 40 ppm (Botrytis cinerea; 40 ppm (*)): 98%
pest or weed control at 40 ppm ([1]; 40 ppm (*)): 100%
pest or weed control at 40 ppm (Septoria tritici; 40 ppm (*)): 100%
pest or weed control at 40 ppm ([2]; 40 ppm (*)): 100%
pest or weed control at 40 ppm (Septoria nodorum; 40 ppm (*)): 100%

COC(=O)NCc1cc(-c2ncn(-c3ccc(OC)cc3C)n2)ccc1C [Compound 70, methyl N-[[5-[1-(4-methoxy-2-methylphenyl)-1H-1,2,4-triazol-3-yl]-2-methylphenyl]methyl]carbamate]
pest or weed control at 40 ppm (Botrytis cinerea; 40 ppm (*)): 84%
pest or weed control at 40 ppm ([1]; 40 ppm (*)): 99%
pest or weed control at 40 ppm (Septoria tritici; 40 ppm (*)): 96%
pest or weed control at 40 ppm ([2]; 40 ppm (*)): 100%
pest or weed control at 40 ppm (Septoria nodorum; 40 ppm (*)): 100%

COC(=O)NCc1cc(-n2ncc(-c3ccc(I)cc3OC)[n+]2[O-])ccc1C [Compound 81]
pest or weed control at 200 ppm (Botrytis cinerea; 200 ppm): 67%
pest or weed control at 200 ppm ([1]; 200 ppm): 99%
pest or weed control at 200 ppm (Septoria tritici; 200 ppm): 98%
pest or weed control at 200 ppm ([2]; 200 ppm): 100%
pest or weed control at 200 ppm (Septoria nodorum; 200 ppm): 100%

methyl N-[[5-[1-(2,4-dimethylphenyl)-1H-pyrazol-3-yl]-2-methylphenyl]-methyl]carbamate [Compound 66]
Test E disease control rating (Botrytis cinerea; 40 ppm (*)): 99* %
Test A disease control rating ([1]; 40 ppm (*)): 100* %
Test C disease control rating (Septoria tritici; 40 ppm (*)): 96* %
Test B disease control rating ([2]; 40 ppm (*)): 100* %
Test D disease control rating (Septoria nodorum; 40 ppm (*)): 100* %

methyl N-[[5-[1-(4-methoxy-2-methylphenyl)-1H-1,2,4-triazol-3-yl]-2-methylphenyl]methyl]carbamate [Compound 70]
Test E disease control rating (Botrytis cinerea; 200 ppm): 0%
Test A disease control rating ([1]; 200 ppm): 100%
Test C disease control rating (Septoria tritici; 200 ppm): 100%
Test B disease control rating ([2]; 200 ppm): 100%
Test D disease control rating (Septoria nodorum; 200 ppm): 100%

methyl N-[[5-[3-(2,4-dimethoxyphenyl)-1H-pyrazol-1-yl]-2-methylphenyl]methyl]carbamate [Compound 23]
Test E disease control rating (Botrytis cinerea; 200 ppm): 56%
Test A disease control rating ([1]; 200 ppm): 99%
Test C disease control rating (Septoria tritici; 200 ppm): 100%
Test B disease control rating ([2]; 200 ppm): 100%
Test D disease control rating (Septoria nodorum; 200 ppm): 100%
